Assay results published in patent US20250171438A1 (Agios Pharmaceuticals, Inc., priority 2022, published 2025).

What follows are compounds tested against T1, human PAH with the R408W mutation (Homo sapiens, UniProt P00439, R408W) (assay: Cell Based Phenylalanine Flux Assay). Conditions: A375 cells expressing human R408W PAH; 24 hrs compound incubation; 13C-Tyrosine by LC-MS; average where tested multiple times; read-out: AC50.
T1 construct: expressed in transfected cells
T1 sequence (P00439 1-452 R408W): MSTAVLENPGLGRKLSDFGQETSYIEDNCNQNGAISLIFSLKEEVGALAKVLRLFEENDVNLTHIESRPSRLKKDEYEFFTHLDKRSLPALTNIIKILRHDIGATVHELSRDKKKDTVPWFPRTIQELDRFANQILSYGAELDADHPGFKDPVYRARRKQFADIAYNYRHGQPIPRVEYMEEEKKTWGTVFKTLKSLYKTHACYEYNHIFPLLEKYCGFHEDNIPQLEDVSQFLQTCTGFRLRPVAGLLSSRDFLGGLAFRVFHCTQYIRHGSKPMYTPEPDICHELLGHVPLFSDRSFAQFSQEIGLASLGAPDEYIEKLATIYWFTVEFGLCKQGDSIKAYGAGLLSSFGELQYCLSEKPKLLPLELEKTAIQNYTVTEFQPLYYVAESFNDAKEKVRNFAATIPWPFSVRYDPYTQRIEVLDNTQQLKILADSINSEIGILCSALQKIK
`O=C(c1cnc(-c2ccc(C(F)(F)F)cn2)s1)N1CCc2[nH]cnc2[C@H]1c1nc2ccccc2s1` [Example 1349] was tested, and the AC50 was 1000 to 5000 nM. “(R)-(4-(benzo[d]thiazol-2-yl)-6,7-dihydro-1H-imidazo[4,5-c]pyridin-5(4H)-yl)(2-(1-methyl-3-(trifluoromethyl)-1H-pyrazol-4-yl)thiazol-5-yl)methanone [Example 1390]” gave an AC50 of 1000 to 5000 nM. “(S)-(4-(benzo[d]thiazol-2-yl)-6,7-dihydro-1H)-imidazo[4,5-c]pyridin-5(4H)-yl)(6-bromopyrazolo[1,5-a]pyridin-3-yl)methanone [Example 1045]” was tested, and the AC50 was 500 to 1000 nM. In the case of `Cc1nc(C(C)(C)N(C)C)oc1C(=O)N1CCc2[nH]cnc2[C@H]1c1nc2c(F)cccc2s1` [Example 2049, (S)-(2-(2-(dimethylamino)propan-2-yl)-4-methyloxazol-5-yl)(4-(4-fluorobenzo[d]thiazol-2-yl)-6,7-dihydro-1H-imidazo[4,5-c]pyridin-5(4H)-yl)methanone], the AC50 is reported as 1000 to 5000 nM. With `O=C(c1nnc(-c2cnn(C(F)F)c2)o1)N1CCc2[nH]cnc2[C@H]1c1nc2ccccc2s1` [Example 1777] the AC50 was < 500 nM. For `O=C(c1ocnc1C1CC1)N1CCc2[nH]cnc2[C@@H]1c1nc2c(F)cccc2s1` [Example 1496, (R)-(4-cyclopropyloxazol-5-yl)(4-(4-fluorobenzo[d]thiazol-2-yl)-6,7-dihydro-1H-imidazo[4,5-c]pyridin-5(4H)-yl)methanone], the AC50 was 1000 to 5000 nM. In the case of `O=C(c1nccs1)N1CCc2[nH]cnc2[C@H]1c1nc2ccc(Br)cc2[nH]1` [Example 933, (S)-(4-(6-bromo-1H-benzo[d]imidazol-2-yl)-6,7-dihydro-1H-imidazo[4,5-c]pyridin-5(4H)-yl)(thiazol-2-yl)methanone], the AC50 is reported as 1000 to 5000 nM. In the case of `O=C(CCC1CC1)N1CCc2[nH]cnc2[C@@H]1c1nc2cccc(F)c2s1` [Example 1134, (R)-3-cyclopropyl-1-(4-(7-fluorobenzo[d]thiazol-2-yl)-6,7-dihydro-1H-imidazo[4,5-c]pyridin-5(4H)-yl)propan-1-one], the AC50 is reported as 1000 to 5000 nM. For `CC(C)(O)c1nc(C(F)F)c(C(=O)N2CCc3[nH]cnc3[C@@H]2c2nc3c(F)cccc3s2)s1` [Example 2086, (R)-(4-(difluoromethyl)-2-(2-hydroxypropan-2-yl)thiazol-5-yl)(4-(4-fluorobenzo[d]thiazol-2-yl)-6,7-dihydro-1H-imidazo[4,5-c]pyridin-5(4H)-yl)methanone], the AC50 was 500 to 1000 nM. `O=C(c1nnc(-c2ccccn2)o1)N1CCc2[nH]cnc2[C@@H]1c1nc2ccccc2s1` [Example 1440, (R)-(4-(benzo[d]thiazol-2-yl)-6,7-dihydro-1H-imidazo[4,5-c]pyridin-5(4H)-yl)(5-(pyridin-2-yl)-1,3,4-oxadiazol-2-yl)methanone] gave an AC50 of 1000 to 5000 nM. In the case of `Cc1nn(C)cc1-c1ncc(C(=O)N2CCc3[nH]cnc3[C@H]2c2nc3ccccc3s2)s1` [Example 1379], the AC50 is reported as < 500 nM. `O=C(c1nc(Cl)cs1)N1CCc2[nH]cnc2[C@H]1c1nc2ccc(Br)cc2[nH]1` [Example 949, (S)-(4-(6-bromo-1H-benzo[d]imidazol-2-yl)-6,7-dihydro-1H-imidazo[4,5-c]pyridin-5(4H)-yl)(4-chlorothiazol-2-yl)methanone] was tested, and the AC50 was < 500 nM. In the case of `CC(C)(O)c1ccc2c(C(=O)N3CCc4[nH]cnc4[C@@H]3c3nc4c(F)cccc4s3)cnn2c1` [Example 1502, (R)-(4-(4-fluorobenzo[d]thiazol-2-yl)-6,7-dihydro-1H-imidazo[4,5-c]pyridin-5(4H)-yl)(6-(2-hydroxypropan-2-yl)pyrazolo[1,5-a]pyridin-3-yl)methanone], the AC50 is reported as 1000 to 5000 nM. In the case of `CC(O)c1nc(Cl)c(C(=O)N2CCc3[nH]cnc3[C@H]2c2nc3c(F)cccc3s2)o1` (single isomer, unassigned) [Example 2079], the AC50 is reported as < 500 nM. `O=C(c1nnc(-c2cnn(CC(F)(F)F)c2)o1)N1CCc2[nH]cnc2[C@@H]1c1nc2ccccc2s1` [Example 1794, [(4R)-4-(1,3-benzothiazol-2-yl)-1,4,6,7-tetrahydroimidazo[4,5-c]pyridin-5-yl]-[5-[1-(2,2,2-trifluoroethyl)pyrazol-4-yl]-1,3,4-oxadiazol-2-yl]methanone] gave an AC50 of 1000 to 5000 nM. Work on `Cc1ncoc1C(=O)N1CCc2[nH]cnc2[C@@H]1c1nc2c(F)cccc2s1` [Example 1320, (R)-(4-(4-fluorobenzo[d]thiazol-2-yl)-6,7-dihydro-1H-imidazo[4,5-c]pyridin-5(4H)-yl)(4-methyloxazol-5-yl)methanone] yielded an AC50 of 1000 to 5000 nM. `O=C(c1cnc(C(F)(F)F)o1)N1CCc2[nH]cnc2[C@H]1c1nc2c(F)cccc2s1` [Example 1401, (S)-(4-(4-fluorobenzo[d]thiazol-2-yl)-6,7-dihydro-1H-imidazo[4,5-c]pyridin-5(4H)-yl)(2-(trifluoromethyl)oxazol-5-yl)methanone] was tested, and the AC50 was < 500 nM. In the case of `O=C(c1oc(OCCC(F)(F)F)nc1C(F)F)N1CCc2[nH]cnc2[C@H]1c1nc2ccccc2s1` [Example 1772], the AC50 is reported as < 500 nM. `O=C(c1oc(N2CCOCC2)nc1C(F)(F)F)N1CCCc2[nH]cnc2[C@H]1c1nc2ccccc2s1` [Example 2133, (S)-(4-(benzo[d]thiazol-2-yl)-7,8-dihydroimidazo[4,5-c]azepin-5(1H,4H,6H)-yl)(2-morpholino-4-(trifluoromethyl)oxazol-5-yl)methanone] gave an AC50 of 1000 to 5000 nM. With `O=C(c1nnc(-c2ccc(F)cc2F)o1)N1CCc2[nH]cnc2[C@H]1c1nc2ccccc2s1` [Example 1811] the AC50 was < 500 nM. `CC(C)(O)Cc1nc(C(F)F)c(C(=O)N2CCc3[nH]cnc3[C@H]2c2nc3c(F)cccc3s2)o1` [Example 2061] was tested, and the AC50 was < 500 nM. `COCCc1ccc2c(C(=O)N3CCc4[nH]cnc4[C@@H]3c3nc4ccccc4s3)c(C#N)nn2c1` [Example 1868, (R)-3-(4-(benzo[d]thiazol-2-yl)-4,5,6,7-tetrahydro-1H-imidazo[4,5-c]pyridine-5-carbonyl)-6-(2-methoxyethyl)pyrazolo[1,5-a]pyridine-2-carbonitrile] was tested, and the AC50 was 1000 to 5000 nM. With `O=C(c1cnc(N2CCCC2)s1)N1CCc2[nH]cnc2[C@H]1c1nc2ccccc2s1` [Example 1323] the AC50 was < 500 nM. With `CC(C)(O)c1nc(C(F)(F)F)c(C(=O)N2CCc3[nH]cnc3[C@@H]2c2nc3c(F)cccc3s2)o1` [Example 1542, (R)-(4-(4-fluorobenzo[d]thiazol-2-yl)-6,7-dihydro-1H-imidazo[4,5-c]pyridin-5(4H)-yl)(2-(2-hydroxypropan-2-yl)-4-(trifluoromethyl)oxazol-5-yl)methanone] the AC50 was < 500 nM. For `O=C(c1nnc(-c2ccccn2)o1)N1CCc2[nH]cnc2[C@H]1c1nc2c(F)cccc2s1` [Example 1602, (S)-(4-(4-fluorobenzo[d]thiazol-2-yl)-6,7-dihydro-1H-imidazo[4,5-c]pyridin-5(4H)-yl)(5-(pyridin-2-yl)-1,3,4-oxadiazol-2-yl)methanone], the AC50 was < 500 nM.

Same assay, conditions: A375 cells expressing human R408W PAH; 24 hrs with compound; 13C-Tyrosine by LC-MS; average where tested multiple times; read-out: AC50
`CC1CN(C(=O)c2cnn3cc(CN(C)C)ccc23)C(c2nc3ccccc3s2)c2nc[nH]c21` (centres unmarked) showed an AC50 of 1000 to 5000 nM. In the case of `O=C(c1ccno1)N1CCc2[nH]cnc2C1c1nc2ccc(F)cc2s1` (centres unmarked), the AC50 is reported as 1000 to 5000 nM. With `O=C(c1ccn(-c2ccccn2)n1)N1CCc2[nH]cnc2C1c1nc2c(F)cccc2s1` (centres unmarked) the AC50 was 1000 to 5000 nM. `N#Cc1n[nH]cc1C(=O)N1CCc2[nH]cnc2C1c1nc2ccccc2s1` (centres unmarked) showed an AC50 of 1000 to 5000 nM. With `Cn1nc(C2CC2)cc1C(=O)N1CCc2[nH]cnc2[C@@H]1c1nc2c(F)cccc2s1` (single isomer, unassigned) the AC50 was > 5000 nM. `O=C(CCc1nc(Cl)cs1)N1CCc2[nH]cnc2[C@H]1c1nc2ccccc2[nH]1` [(S)-1-(4-(1H-benzo[d]imidazol-2-yl)-1,4,6,7-tetrahydro-5H-imidazo[4,5-c]pyridin-5-yl)-3-(4-chlorothiazol-2-yl)propan-1-one] was tested, and the AC50 was 1000 to 5000 nM. With `O=C(c1nccs1)N1CCc2nc[nH]c2C1c1nc2ccc(F)cc2s1` (centres unmarked) the AC50 was > 5000 nM. `Cn1ccc(C(=O)N2CCc3[nH]cnc3C2c2nc3ccccc3s2)n1` (centres unmarked) gave an AC50 of 1000 to 5000 nM. With `Cc1nc(C(C)(C)S(C)(=O)=O)oc1C(=O)N1CCc2[nH]cnc2[C@@H]1c1nc2c(F)cccc2s1` (single isomer, unassigned) the AC50 was > 5000 nM. With `O=C(c1cnn2ccccc12)N1CCc2[nH]cnc2[C@H]1c1nc2ccc(Cl)cc2s1` (single isomer, unassigned) the AC50 was 1000 to 5000 nM. For `O=C(CCc1nc2ccccc2o1)N1CCc2[nH]cnc2C1c1nc2ccccc2[nH]1` (centres unmarked), the AC50 was > 5000 nM. In the case of `CC(C)(O)c1nc(C(=O)N2CCc3[nH]cnc3C2c2nc3c(F)cccc3s2)no1` (centres unmarked), the AC50 is reported as > 5000 nM. `Cn1ncnc1C(=O)N1CCc2[nH]cnc2C1c1nc2c(F)cccc2s1` (centres unmarked) showed an AC50 of 1000 to 5000 nM. `Cc1csc(C(=O)N2CCc3[nH]cnc3[C@H]2c2nc3ccccc3[nH]2)n1` [(S)-(4-(1H-benzo[d]imidazol-2-yl)-1,4,6,7-tetrahydro-5H-imidazo[4,5-c]pyridin-5-yl)(4-methylthiazol-2-yl)methanone] was tested, and the AC50 was 1000 to 5000 nM. For `Cc1ccc2c(C(=O)N3CCc4[nH]cnc4C3c3nc4ccc(Cl)cc4[nH]3)cnn2c1` (centres unmarked), the AC50 was 1000 to 5000 nM. With `CNC(=O)N1CC(C(=O)N2CCc3[nH]cnc3C2c2nc3ccccc3s2)C1` (centres unmarked) the AC50 was > 5000 nM. In the case of `Cc1nc(C2CCN2)oc1C(=O)N1CCc2[nH]cnc2C1c1nc2c(F)cccc2s1` (centres unmarked), the AC50 is reported as > 5000 nM. In the case of `O=C(c1cc[nH]n1)N1CCc2[nH]cnc2C1c1nc2ccccc2[nH]1` (centres unmarked), the AC50 is reported as 1000 to 5000 nM. In the case of `COc1ccn2ncc(C(=O)N3CCc4[nH]cnc4C3c3nc4ccc(Br)cc4[nH]3)c2c1` (centres unmarked), the AC50 is reported as > 5000 nM.
